Holding throughout (assay type): cell-based
For one assay, the system named is total aerobes. In words: Example 4 (reference): laboratory test, broke sample, total aerobes count. Particulars: broke 1.0% consistency, pH 7.8, ORP +146 mV; 10 ppm active chlorine, 1 day contact time; untreated 650 000 cfu/ml. On the procedure:
(§1) This laboratory test was performed in order to test killing effect of sodium hypochlorite against total aerobes and aerobic spores in broke sample (consistency 1.0%, pH 7.8, ORP +146 mV) taken from an alkaline board machine, which produces 3-ply food packaging board. Total aerobes and aerobic spore counts were quantitated by using plate count agar (+45° C./+37° C., 2 days incubation). Prior to the bacterial spore determination, samples were pasteurized at +80° C. for 20 min.

The subject of assay [1] is aerobic spores. The assay is described as follows: Example 4 (reference): laboratory test, broke sample, aerobic spore count. Conditions: broke 1.0% consistency, pH 7.8, ORP +146 mV; 10 ppm active chlorine, 1 day contact time; untreated 70 cfu/ml. Here is the method:
as §1

Assay [2] deals with aerobic spores. The assay is described as follows: Example 5: pilot paper machine test, aerobic spores in dry paper (ISO 8784-1). Conditions: glutaraldehyde alone, 50 ppm as active agent, 5 min post-treatment of pulp suspension (reference paper). Here is the method:
This test was performed in a pilot paper machine producing 1-ply paper. Aim of the test was to verify efficacy of the invention to provide a low quantity of aerobic bacteria and aerobic bacterial spores in dry paper end-product. Composition 1-5 comprising 40 weight-% of dodecylamine, 40 weight-% of dipropylene glycol and 20 weight-% of water was used according to the invention. It was dosed as 100, 150 or 300 mg/l into pulp suspension with 2.25% consistency. The pulp suspension was then mixed 120 rpm for 30 min at +40° C. The pulp suspension was made from a batch of authentic, spore-contaminated folding-box board with average spore content of 7000 cfu/gram of dry board. All pulp suspensions in the pilot paper machine were also post-treated (5 min, 120 rpm) with glutaraldehyde (dose: 50 ppm as active agent) in order to maintain control of vegetative bacterial cells in the pilot machine. Total aerobic bacteria (without pasteurization) and aerobic spores (with pasteurization step at +82° C. for 10 min) were quantified from the dry paper end product according to the ISO 8784-1 standard for microbiological examination of paper and board.

Take `OCl` [Sodium hypochlorite, sodium hypochlorite]: the total aerobes in the assay on total aerobes is reported as 390 000 cfu/ml. The aerobic spores with aerobic spores [1] is 60 cfu/ml.

For `O=CCCCC=O` [glutaraldehyde], the “effect on spore contamination in the produced paper” value with aerobic spores [2] is on record as “not alone capable to lower spore contamination”.

The values are drawn from patent publication US11160282B2, “Use of a composition and method for reducing bacterial spores in pulp suspension” (Kemira Oyj, priority 2016, dated 2021).
